This note sets out measurements from patent US11697650B2, “Compounds having tetrahydroindolizine-1-carboxamide as BCL-2 inhibitors” (Eil Therapeutics, Inc., priority 2021, dated 2023).

One data set concerns MOLT-4 cells. Nature of the data set: Cell viability assay (CellTiter-Glo), MOLT-4. The format is cell-based. The following applies: Homo sapiens, 72 h, 3 days, read-out: MOLT-4 (CC50 code). The method, then:
(§1) Culture medium for HEK293—DMEM (PanEco, Cat #C420) was used. RPMI-1640 (PanEco, Cat #C363) was used for the rest of the cell lines.
(§2) Compounds were prepared as 200× stocks with serial dilution in 100% DMSO with a final concentration of 1×.
(§3) […] were dispersed in 40 μL aliquots in 384-well plates at a concentration of 2000 cells per well for HEK293 and at a concentration of 4000 cells per well for the rest of the cell lines using a robotic station Biomek (Beckman). Before adding compounds, the cells were incubated at 37° C. (HEK293 were incubated for a day before adding compounds).
(§4) A dilution plate was prepared by pouring 78 μL of the appropriate culture medium using a robotic station Biomek (Beckman). Sequentially, using a robotic station, 2 μL of substances were taken and added to 78 μL of culture medium (dilution of compounds 40×). 10 μL aliquots were taken and added to the plates of the cells (dilution of compounds 5×). The plates were incubated for 3 days at a temperature 37° C. After 3 days, 10 μL of CellTiter-Glo (Promega) was added to the cells and the luminescence was measured.
In general terms: ATP-based viability assays read luminescence as a measure of living cells.

Another data set relates to RS4-11 cells. Nature of the data set: Cell viability assay (CellTiter-Glo), RS4-11. The format is cell-based. The following applies: Homo sapiens, 72 h, 3 days, read-out: RS4-11 (CC50 code). How it is done:
as §1, §2, §3, §4

For another data set, the target named is BCL-2 (Homo sapiens (Human), UniProt P10415). Kind of data set: BCL-2 TR-FRET Assay (primary PPI inhibition). The following applies: 60 min incubation; read-out: BCL2 (IC50 code, BCL-2 TR-FRET). The format is binding. The method, then: BCL-2 TR-FRET Assay (BPS Bioscience, #50222)
Chain of BCL-2 (P10415 whole entry): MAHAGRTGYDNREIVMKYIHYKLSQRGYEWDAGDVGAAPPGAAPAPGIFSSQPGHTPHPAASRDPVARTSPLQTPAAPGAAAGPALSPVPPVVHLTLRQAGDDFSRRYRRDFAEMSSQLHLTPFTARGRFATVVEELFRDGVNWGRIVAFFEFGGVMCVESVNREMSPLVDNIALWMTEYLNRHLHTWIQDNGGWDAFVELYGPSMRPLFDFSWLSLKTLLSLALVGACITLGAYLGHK
The following assay concentrations and times were used: 3 ng BCL-2, 5 μl of 1:100 anti-His Tb-labeled donor, 5 μl of 1:100 Dye-labeled acceptor, 5 μl of 1:40 BCL-2 Peptide Ligand, and 2 ul of test compound, with 60 min incubation time. The results of the assay were read using a Clariostar (BMG Labtech) plate reader with the following parameters: TR FRET, 340ex/620 and 665em; 60 μsec Delay; and 500 μsec integration.
(Time-resolved FRET reads energy transfer from a long-lived donor to a nearby acceptor.)

Data set [1] relates to caspase-3 and -7 activities in RS4-11 cells. Kind of data set: Caspase-3/7 activation (Caspase-Glo 3/7) in RS4-11 cells. The following applies: Homo sapiens, 3.5 h incubation, read-out: Cas-3/7 (EC50 code). The format is cell-based. The method, then:
The Caspase-Glo 3/7 Assay is homogeneous, luminescent assay that measures caspase-3 and -7 activities. The assay provides a luminogenic caspase-3/7 substrate, which contains the tetrapeptide sequence DEVD, in a reagent optimized for caspase activity.
Incubate RS4-11 cells with varying concentrations of test compounds for 3.5 h in a humidified incubator at 37° C. and 5% CO2 and 30 min at r.t. Add 15 μl Caspase-Glo reagent to each well and incubate the plate for 30 min at r.t. Read on ClarioStar Plus instrument.
Promega Caspase-Glo (Promega, #8212); Frozen RS4-11 cells; 384-well white plate (Corning, #3570).
ClarioStar Plus; Biomek FX for liquid handling (Beckman Coulter).

A further data set concerns the target BCL-XL (Homo sapiens (Human), UniProt Q07817). Kind of data set: BCL-XL TR-FRET Assay (primary PPI inhibition). The note with it: 60 min incubation; read-out: BCLxL (IC50 code, BCL-XL TR-FRET). The format is binding. The method, then: BCL-XL TR-FRET Assay (BPS Bioscience, #50223)
The following assay concentrations and times were used: 10.5 ng BCL-XL, 5 μl of 1:100 anti-His Tb-labeled donor, 5 μl of 1:100 Dye-labeled acceptor, 5 μl of 1:80 BCL-XL Peptide Ligand, and 2 μl of test compound, with 60 min incubation time. The results of the assay were read using a Clariostar (BMG Labtech) plate reader with the following parameters: TR FRET, 340ex/620 and 665em; 60 μsec Delay; and 500 μsec integration.

The nature of data set [2]: Cell viability assay (CellTiter-Glo), HEK293. The note with it: human, HEK293 cells, read-out: HEK293 (CC50 code). Format: cell-based. The method, then: as §1, §2, §3, §4

Chain of BCL-XL (Q07817 whole entry): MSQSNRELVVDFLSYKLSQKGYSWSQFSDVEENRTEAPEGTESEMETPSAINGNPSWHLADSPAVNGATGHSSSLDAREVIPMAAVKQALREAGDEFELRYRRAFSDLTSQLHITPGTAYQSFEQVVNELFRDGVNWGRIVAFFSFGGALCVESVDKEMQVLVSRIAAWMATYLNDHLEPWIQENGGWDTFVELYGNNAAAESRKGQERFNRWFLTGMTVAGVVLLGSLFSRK

A word on the CC50: it is the concentration giving 50% cytotoxicity. The IC50 is the point on the concentration scale where inhibition reaches its midpoint. For the molecule `COc1cccc(CN(C(=O)c2cc(-c3cc4c(cc3C(=O)N3Cc5ccccc5C[C@H]3CN3CCOCC3)OCO4)n3c2CCCC3)c2ccc(O)cc2)c1C` [Compound 3, N-(4-hydroxyphenyl)-N-(3-methoxy-2-methylbenzyl)-3-(6-{[(3S)-3-(morpholin-4-ylmethyl)-3,4-dihydroisoquinolin-2(1H)-yl]carbonyl}-1,3-benzodioxol-5-yl)-5,6,7,8-tetrahydroindolizine-1-carboxamide], the CC50 is at most 2 µM with MOLT-4 cells and at most 0.1 µM in the data set with RS4-11 cells. In addition, the IC50 on BCL-2 is at most 0.005 µM; at BCL-XL, at most 2 µM. Also, in data set [1], the EC50 is at most 0.1 µM. For the same molecule, the CC50 at 3 days in data set [2] is above 25 µM.
Turning to `Cc1ccccc1CN(C(=O)c1cc(-c2cc3c(cc2C(=O)N2Cc4ccccc4C[C@H]2CN2CCOCC2)OCO3)n2c1CCCC2)c1ccc(O)cc1` [Compound 4, N-(4-hydroxyphenyl)-N-(2-methylbenzyl)-3-(6-{[(3S)-3-(morpholin-4-ylmethyl)-3,4-dihydroisoquinolin-2(1H)-yl]carbonyl}-1,3-benzodioxol-5-yl)-5,6,7,8-tetrahydroindolizine-1-carboxamide], the CC50 with MOLT-4 cells is above 10 µM; in the data set with RS4-11 cells it was at most 0.1 µM. For the same molecule, the IC50 at BCL-2 is at most 0.005 µM; at BCL-XL it was at most 2 µM. The EC50 in data set [1] is at most 0.1 µM. Also, the CC50 at 3 days in data set [2] was above 25 µM.
For the molecule `O=C(c1cc(-c2cc3c(cc2C(=O)N2Cc4ccccc4C[C@H]2CN2CCOCC2)OCO3)n2c1CCCC2)N(Cc1ccccc1C(F)(F)F)c1ccc(O)cc1` [Compound 5, N-(4-hydroxyphenyl)-3-(6-{[(3S)-3-(morpholin-4-ylmethyl)-3,4-dihydroisoquinolin-2(1H)-yl]carbonyl}-1,3-benzodioxol-5-yl)-N-[2-(trifluoromethyl)benzyl]-5,6,7,8-tetrahydroindolizine-1-carboxamide], the CC50 is 2 to 10 µM in the data set on MOLT-4 cells and at most 0.1 µM in the data set with RS4-11 cells. Further, the IC50 on BCL-2 was at most 0.005 µM; on BCL-XL, at most 2 µM. Also, in data set [1], the EC50 is at most 0.1 µM. For the same molecule, in data set [2], the CC50 at 3 days is above 25 µM.
For `O=C(c1cc(-c2cc3c(cc2C(=O)N2Cc4ccccc4C[C@H]2CN2CCOCC2)OCO3)n2c1CCCC2)N(Cc1ccncc1)c1ccc(O)cc1` [Compound 9, N-(4-hydroxyphenyl)-3-(6-{[(3S)-3-(morpholin-4-ylmethyl)-3,4-dihydroisoquinolin-2(1H)-yl]carbonyl}-1,3-benzodioxol-5-yl)-N-(pyridin-4-ylmethyl)-5,6,7,8-tetrahydroindolizine-1-carboxamide], the CC50 fell in the range of 2 to 10 µM in the data set on MOLT-4 cells and 0.1 to 0.2 µM in the data set with RS4-11 cells. The half-inhibitory concentration (IC50) is at most 0.005 µM on BCL-2 and 2 to 4 µM on BCL-XL. Moreover, the EC50 in data set [1] fell in the range of 0.1 to 0.25 µM. In addition, in data set [2], the cytotoxic concentration (CC50) at 3 days was 10 to 25 µM.
On to `O=C(c1cc(-c2cc3c(cc2C(=O)N2Cc4ccccc4C[C@H]2CN2CCOCC2)OCO3)n2c1CCCC2)N(Cc1ccccc1F)c1ccc(O)cc1` [Compound 11, N-(2-fluorobenzyl)-N-(4-hydroxyphenyl)-3-(6-{[(3S)-3-(morpholin-4-ylmethyl)-3,4-dihydroisoquinolin-2(1H)-yl]carbonyl}-1,3-benzodioxol-5-yl)-5,6,7,8-tetrahydroindolizine-1-carboxamide], for which the CC50 with MOLT-4 cells was above 10 µM; in the data set with RS4-11 cells, at most 0.1 µM. Also, the EC50 in data set [1] was at most 0.1 µM. In data set [2], the CC50 at 3 days fell in the range of 10 to 25 µM.
On to `Cc1cccc(CN(C(=O)c2cc(-c3cc4c(cc3C(=O)N3Cc5ccccc5C[C@H]3CN3CCOCC3)OCO4)n3c2CCCC3)c2ccc(O)cc2)c1` [Compound 14, N-(4-hydroxyphenyl)-N-(3-methylbenzyl)-3-(6-{[(3S)-3-(morpholin-4-ylmethyl)-3,4-dihydroisoquinolin-2(1H)-yl]carbonyl}-1,3-benzodioxol-5-yl)-5,6,7,8-tetrahydroindolizine-1-carboxamide], for which the figures for the cytotoxic concentration (CC50) with MOLT-4 cells and in the data set with RS4-11 cells were 2 to 10 µM and at most 0.1 µM, respectively. Also, the IC50 on BCL-2 fell in the range of 0.005 to 0.01 µM; on BCL-XL, 2 to 4 µM. The EC50 in data set [1] is above 0.25 µM. The CC50 at 3 days in data set [2] was above 25 µM.
Take `O=C(c1cc(-c2cc3c(cc2C(=O)N2Cc4ccccc4C[C@H]2CN2CCOCC2)OCO3)n2c1CCCC2)N(Cc1ccccc1)c1ccc(O)cc1` [Compound 15, N-benzyl-N-(4-hydroxyphenyl)-3-(6-{[(3S)-3-(morpholin-4-ylmethyl)-3,4-dihydroisoquinolin-2(1H)-yl]carbonyl}-1,3-benzodioxol-5-yl)-5,6,7,8-tetrahydroindolizine-1-carboxamide]: the figures for the CC50 in the data set with MOLT-4 cells and in the data set with RS4-11 cells were at most 2 µM and 0.1 to 0.2 µM, respectively. The IC50 at BCL-2 was 0.005 to 0.01 µM; at BCL-XL, at most 2 µM. Also, the EC50 in data set [1] lay within 0.1 to 0.25 µM. Also, in data set [2], the CC50 at 3 days is above 25 µM.
Take `O=C(c1cc(-c2cc3c(cc2C(=O)N2Cc4ccccc4C[C@H]2CN2CCOCC2)OCO3)n2c1CCCC2)N(Cc1cccc(C(F)(F)F)c1)c1ccc(O)cc1` [Compound 16, N-(4-hydroxyphenyl)-3-(6-{[(3S)-3-(morpholin-4-ylmethyl)-3,4-dihydroisoquinolin-2(1H)-yl]carbonyl}-1,3-benzodioxol-5-yl)-N-[3-(trifluoromethyl)benzyl]-5,6,7,8-tetrahydroindolizine-1-carboxamide]: the CC50 in the data set with MOLT-4 cells is above 10 µM; in the data set on RS4-11 cells, 0.1 to 0.2 µM. The IC50 at BCL-2 is 0.01 to 0.05 µM; on BCL-XL, above 4 µM. Moreover, the EC50 in data set [1] lay in the range of 0.1 to 0.25 µM. The CC50 at 3 days in data set [2] is above 25 µM.
Turning to `O=C(c1cc(-c2cc3c(cc2C(=O)N2Cc4ccccc4C[C@H]2CN2CCOCC2)OCO3)n2c1CCCC2)N(Cc1ccc(F)cc1)c1ccc(O)cc1` [Compound 17, N-(4-fluorobenzyl)-N-(4-hydroxyphenyl)-3-(6-{[(3S)-3-(morpholin-4-ylmethyl)-3,4-dihydroisoquinolin-2(1H)-yl]carbonyl}-1,3-benzodioxol-5-yl)-5,6,7,8-tetrahydroindolizine-1-carboxamide], the CC50 in the data set with MOLT-4 cells is above 10 µM; in the data set with RS4-11 cells it was above 0.2 µM. In addition, on BCL-2, the IC50 lay within 0.01 to 0.05 µM. The EC50 in data set [1] was above 0.25 µM. Besides, the CC50 at 3 days in data set [2] was above 25 µM.
For `O=C(c1cc(-c2cc3c(cc2C(=O)N2Cc4ccccc4C[C@H]2CN2CCOCC2)OCO3)n2c1CCCC2)N(Cc1ccccc1-c1ccccc1)c1ccc(O)cc1` [Compound 18, N-(biphenyl-2-ylmethyl)-N-(4-hydroxyphenyl)-3-(6-{[(3S)-3-(morpholin-4-ylmethyl)-3,4-dihydroisoquinolin-2(1H)-yl]carbonyl}-1,3-benzodioxol-5-yl)-5,6,7,8-tetrahydroindolizine-1-carboxamide], the figures for the CC50 in the data set with MOLT-4 cells and in the data set on RS4-11 cells were 2 to 10 µM and above 0.2 µM, respectively. The IC50 at BCL-2 was 0.01 to 0.05 µM; on BCL-XL it was at most 2 µM. Besides, the EC50 in data set [1] was above 0.25 µM. For the same molecule, the half-maximal cytotoxic concentration (CC50) at 3 days in data set [2] is above 25 µM.
On to `Cc1cc(C(F)(F)F)ccc1CN(C(=O)c1cc(-c2cc3c(cc2C(=O)N2Cc4ccccc4C[C@H]2CN2CCOCC2)OCO3)n2c1CCCC2)c1ccc(O)cc1` [Compound 37, N-(4-hydroxyphenyl)-N-[2-methyl-4-(trifluoromethyl)benzyl]-3-(6-{[(3S)-3-(morpholin-4-ylmethyl)-3,4-dihydroisoquinolin-2(1H)-yl]carbonyl}-1,3-benzodioxol-5-yl)-5,6,7,8-tetrahydroindolizine-1-carboxamide], for which the CC50 in the data set with MOLT-4 cells is 2 to 10 µM; in the data set with RS4-11 cells, at most 0.1 µM. Further, the IC50 on BCL-2 was 0.005 to 0.01 µM. For the same molecule, the EC50 in data set [1] fell in the range of 0.1 to 0.25 µM. For the same molecule, in data set [2], the 50% cytotoxic concentration (CC50) at 3 days was above 25 µM.
